The test deals with Mycobacterium tuberculosis. Put plainly: Antibacterial activity against multi drug resistant Mycobacterium tuberculosis. It counts as functional.

The structures appear in SMILES notation. Converted amounts (≈) assume the structure as drawn.

`CC(=O)NC[C@H]1CN(c2ccc(N3CCN(c4ccc([N+](=O)[O-])s4)CC3)c(F)c2)C(=O)O1` showed an MIC90 of 1 µg/mL (≈ 2.16 µM).

A word on the MIC90: it is an inhibitory concentration at the 90% level, which refers to growth in some studies and to a panel of isolates in others. The low end stands for higher susceptibility, the high end for lower susceptibility.

For the origin of these results see ChEMBL document CHEMBL1138308, “Synthesis and antibacterial activity of potent heterocyclic oxazolidinones and the identification of RBx 8700” (2007).
